Source: ChEMBL document CHEMBL1152560, “Substituted 2-arylbenzothiazoles as kinase inhibitors: hit-to-lead optimization” (Bioorg Med Chem, 2009)

Columns and labels:
[1] = test system: T1, Dual specificity mitogen-activated protein kinase kinase 6 (Homo sapiens), P52564 [S207D,T211D]; test: Residual activity of MKK6 S207D/T211D mutant at 0.1 uM by microplate scintillation counting
T1 sequence (whole entry): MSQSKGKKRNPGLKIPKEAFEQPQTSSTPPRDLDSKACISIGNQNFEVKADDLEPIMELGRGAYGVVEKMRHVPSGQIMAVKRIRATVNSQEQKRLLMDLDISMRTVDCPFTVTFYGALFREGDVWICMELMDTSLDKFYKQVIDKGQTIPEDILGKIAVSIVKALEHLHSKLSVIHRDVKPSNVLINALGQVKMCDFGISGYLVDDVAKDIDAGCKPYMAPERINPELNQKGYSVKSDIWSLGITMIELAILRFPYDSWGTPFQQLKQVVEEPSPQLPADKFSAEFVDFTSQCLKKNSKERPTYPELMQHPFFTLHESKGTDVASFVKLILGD

[2] = target: Tyrosine-protein kinase CSK (Homo sapiens) (UniProt P41240); test: Residual activity of CSK at 0.1 uM by microplate scintillation counting
Chain of Tyrosine-protein kinase CSK (Homo sapiens) (P41240 2-450 limits assumed): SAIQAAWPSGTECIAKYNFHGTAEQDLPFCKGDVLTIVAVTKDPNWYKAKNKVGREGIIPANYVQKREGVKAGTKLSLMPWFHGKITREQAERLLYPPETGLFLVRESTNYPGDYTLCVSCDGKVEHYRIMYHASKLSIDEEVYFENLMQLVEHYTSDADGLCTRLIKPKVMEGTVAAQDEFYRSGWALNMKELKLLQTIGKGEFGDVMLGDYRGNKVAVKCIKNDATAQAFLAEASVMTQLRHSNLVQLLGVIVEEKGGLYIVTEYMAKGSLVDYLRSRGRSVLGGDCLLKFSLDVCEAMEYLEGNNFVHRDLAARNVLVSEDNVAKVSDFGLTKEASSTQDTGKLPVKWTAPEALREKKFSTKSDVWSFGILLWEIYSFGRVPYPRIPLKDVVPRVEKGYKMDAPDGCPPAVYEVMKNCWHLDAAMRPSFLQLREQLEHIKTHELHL

[3] = target: Tyrosine-protein kinase FRK (Homo sapiens) (UniProt P42685); test: Residual activity of FRK at 1 uM by microplate scintillation counting
Chain of Tyrosine-protein kinase FRK (Homo sapiens) (P42685 whole entry): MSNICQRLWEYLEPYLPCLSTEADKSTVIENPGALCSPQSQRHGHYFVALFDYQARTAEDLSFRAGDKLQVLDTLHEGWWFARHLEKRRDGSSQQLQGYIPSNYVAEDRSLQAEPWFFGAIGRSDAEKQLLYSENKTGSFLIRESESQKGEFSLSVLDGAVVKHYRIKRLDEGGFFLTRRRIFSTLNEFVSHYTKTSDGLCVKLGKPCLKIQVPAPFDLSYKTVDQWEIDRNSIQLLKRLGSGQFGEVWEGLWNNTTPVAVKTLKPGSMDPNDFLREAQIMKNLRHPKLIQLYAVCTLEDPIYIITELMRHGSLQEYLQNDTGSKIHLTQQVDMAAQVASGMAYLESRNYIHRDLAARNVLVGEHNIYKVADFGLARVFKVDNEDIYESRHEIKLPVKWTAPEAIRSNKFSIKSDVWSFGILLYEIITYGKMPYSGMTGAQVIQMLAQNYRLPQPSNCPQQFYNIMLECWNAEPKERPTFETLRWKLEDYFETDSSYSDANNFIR

[4] = target: T2, NUAK family SNF1-like kinase 1 (Homo sapiens) (UniProt O60285); test: Residual activity of ARK5 at 10 uM by microplate scintillation counting
T2 sequence (whole entry): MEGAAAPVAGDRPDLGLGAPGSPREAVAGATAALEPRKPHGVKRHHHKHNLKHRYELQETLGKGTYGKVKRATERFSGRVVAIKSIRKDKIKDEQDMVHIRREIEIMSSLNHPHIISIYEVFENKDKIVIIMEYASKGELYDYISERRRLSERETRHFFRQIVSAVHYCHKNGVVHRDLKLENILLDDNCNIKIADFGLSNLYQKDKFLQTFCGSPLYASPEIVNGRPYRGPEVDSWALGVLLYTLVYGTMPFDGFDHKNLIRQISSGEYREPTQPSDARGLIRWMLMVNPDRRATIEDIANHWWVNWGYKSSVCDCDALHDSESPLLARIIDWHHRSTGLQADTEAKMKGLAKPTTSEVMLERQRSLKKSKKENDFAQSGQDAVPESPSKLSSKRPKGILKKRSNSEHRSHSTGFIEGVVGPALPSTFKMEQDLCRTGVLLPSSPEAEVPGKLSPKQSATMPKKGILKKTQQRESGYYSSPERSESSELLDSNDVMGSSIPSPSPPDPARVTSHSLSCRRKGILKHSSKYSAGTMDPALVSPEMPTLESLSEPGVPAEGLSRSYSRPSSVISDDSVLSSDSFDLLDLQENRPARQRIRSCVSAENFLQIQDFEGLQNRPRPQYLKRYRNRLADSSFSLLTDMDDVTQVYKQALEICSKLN

[5] = target: Serine/threonine-protein kinase WNK2 (Homo sapiens) (UniProt Q9Y3S1); test: Residual activity of WNK2 at 0.1 uM by microplate scintillation counting
Chain of Serine/threonine-protein kinase WNK2 (Homo sapiens) (Q9Y3S1 whole entry): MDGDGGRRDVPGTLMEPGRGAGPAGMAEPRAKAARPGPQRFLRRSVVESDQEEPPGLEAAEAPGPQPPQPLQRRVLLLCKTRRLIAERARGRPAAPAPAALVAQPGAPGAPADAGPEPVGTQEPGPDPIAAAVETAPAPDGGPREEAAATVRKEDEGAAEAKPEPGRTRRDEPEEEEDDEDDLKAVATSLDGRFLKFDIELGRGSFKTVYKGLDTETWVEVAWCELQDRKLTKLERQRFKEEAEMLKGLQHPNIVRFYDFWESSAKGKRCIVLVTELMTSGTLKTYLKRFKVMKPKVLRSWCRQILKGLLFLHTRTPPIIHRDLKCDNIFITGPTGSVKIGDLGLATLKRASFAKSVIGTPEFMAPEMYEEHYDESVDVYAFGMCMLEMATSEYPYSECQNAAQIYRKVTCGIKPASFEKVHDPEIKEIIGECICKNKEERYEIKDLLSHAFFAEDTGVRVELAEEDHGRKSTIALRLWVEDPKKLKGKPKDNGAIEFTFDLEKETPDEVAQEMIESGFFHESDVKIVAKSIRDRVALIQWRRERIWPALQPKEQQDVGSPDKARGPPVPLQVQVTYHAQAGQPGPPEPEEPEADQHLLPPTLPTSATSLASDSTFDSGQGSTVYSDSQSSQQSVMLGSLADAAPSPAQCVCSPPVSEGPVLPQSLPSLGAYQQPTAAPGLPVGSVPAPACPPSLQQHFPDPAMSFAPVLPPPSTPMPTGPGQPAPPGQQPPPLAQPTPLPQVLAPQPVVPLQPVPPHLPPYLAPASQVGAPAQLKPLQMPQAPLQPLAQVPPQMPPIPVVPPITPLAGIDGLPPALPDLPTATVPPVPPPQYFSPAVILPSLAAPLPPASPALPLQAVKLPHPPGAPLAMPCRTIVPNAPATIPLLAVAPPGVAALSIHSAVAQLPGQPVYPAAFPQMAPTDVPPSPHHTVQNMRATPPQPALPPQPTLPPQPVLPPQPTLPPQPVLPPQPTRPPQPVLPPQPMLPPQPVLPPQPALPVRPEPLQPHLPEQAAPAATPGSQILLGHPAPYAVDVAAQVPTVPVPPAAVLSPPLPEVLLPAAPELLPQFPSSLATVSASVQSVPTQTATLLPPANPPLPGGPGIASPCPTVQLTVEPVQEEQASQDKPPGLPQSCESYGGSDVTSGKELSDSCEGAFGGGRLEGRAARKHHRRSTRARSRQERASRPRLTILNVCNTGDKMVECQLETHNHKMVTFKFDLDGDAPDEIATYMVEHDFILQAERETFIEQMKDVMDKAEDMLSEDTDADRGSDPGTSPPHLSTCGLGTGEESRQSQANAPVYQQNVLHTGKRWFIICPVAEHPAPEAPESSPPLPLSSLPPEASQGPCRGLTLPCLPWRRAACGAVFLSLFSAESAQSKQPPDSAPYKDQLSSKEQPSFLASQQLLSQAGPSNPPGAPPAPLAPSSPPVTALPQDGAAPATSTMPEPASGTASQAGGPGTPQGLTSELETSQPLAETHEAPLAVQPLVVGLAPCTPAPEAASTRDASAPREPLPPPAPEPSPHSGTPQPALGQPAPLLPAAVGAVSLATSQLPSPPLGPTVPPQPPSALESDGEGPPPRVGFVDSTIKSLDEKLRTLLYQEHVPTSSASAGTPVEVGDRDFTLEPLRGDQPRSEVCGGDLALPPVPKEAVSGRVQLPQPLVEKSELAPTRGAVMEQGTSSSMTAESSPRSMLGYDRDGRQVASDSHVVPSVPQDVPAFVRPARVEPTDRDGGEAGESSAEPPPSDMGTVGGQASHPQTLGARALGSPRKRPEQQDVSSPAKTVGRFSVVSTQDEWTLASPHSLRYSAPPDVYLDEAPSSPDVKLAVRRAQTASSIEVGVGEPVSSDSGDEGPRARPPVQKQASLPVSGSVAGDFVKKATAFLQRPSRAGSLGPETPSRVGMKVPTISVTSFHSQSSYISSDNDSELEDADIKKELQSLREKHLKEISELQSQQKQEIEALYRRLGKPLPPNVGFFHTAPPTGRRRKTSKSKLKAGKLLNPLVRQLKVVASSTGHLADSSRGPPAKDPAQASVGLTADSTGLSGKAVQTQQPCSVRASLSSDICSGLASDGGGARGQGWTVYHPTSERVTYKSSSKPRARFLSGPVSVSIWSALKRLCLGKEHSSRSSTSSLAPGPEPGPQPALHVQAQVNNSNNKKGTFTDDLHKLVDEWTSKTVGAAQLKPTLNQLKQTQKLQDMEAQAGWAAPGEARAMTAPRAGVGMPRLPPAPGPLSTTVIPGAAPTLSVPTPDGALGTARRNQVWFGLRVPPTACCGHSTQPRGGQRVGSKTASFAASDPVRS

[6] = target: T3, Protein kinase C iota type (Homo sapiens) (UniProt P41743); test: Residual activity of PKCiota at 1 uM by microplate scintillation counting
T3 sequence (whole entry): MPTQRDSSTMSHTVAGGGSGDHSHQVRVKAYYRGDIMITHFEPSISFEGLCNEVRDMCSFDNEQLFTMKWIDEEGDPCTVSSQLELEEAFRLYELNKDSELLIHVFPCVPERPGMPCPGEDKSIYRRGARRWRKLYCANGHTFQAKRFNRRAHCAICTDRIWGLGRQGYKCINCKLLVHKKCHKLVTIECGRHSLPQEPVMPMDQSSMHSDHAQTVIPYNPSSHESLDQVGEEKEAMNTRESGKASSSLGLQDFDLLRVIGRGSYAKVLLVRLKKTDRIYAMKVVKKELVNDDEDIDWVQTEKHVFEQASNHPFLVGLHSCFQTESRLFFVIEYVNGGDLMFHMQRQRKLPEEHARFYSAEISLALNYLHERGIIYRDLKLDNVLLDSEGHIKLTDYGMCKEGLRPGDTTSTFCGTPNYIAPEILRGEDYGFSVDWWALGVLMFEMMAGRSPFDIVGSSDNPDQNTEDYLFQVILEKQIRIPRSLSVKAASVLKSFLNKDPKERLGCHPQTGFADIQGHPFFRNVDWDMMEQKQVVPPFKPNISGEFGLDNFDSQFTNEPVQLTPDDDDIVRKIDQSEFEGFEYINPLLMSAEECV

[7] = target: Serine/threonine-protein kinase MRCK beta (Homo sapiens) (UniProt Q9Y5S2); test: Residual activity of CDC42BPB at 10 uM by microplate scintillation counting
[8] = target: SRSF protein kinase 2 (Homo sapiens) (UniProt P78362); test: Residual activity of SRPK2 at 0.1 uM by microplate scintillation counting
[9] = target: Receptor tyrosine-protein kinase erbB-2 (Homo sapiens, UniProt P04626); test: Residual activity of ERBB2 at 10 uM by microplate scintillation counting
[10] = target: CDK9/cyclin T1 (Homo sapiens) (UniProt O60563+P50750); test: Residual activity of CDK9/Cyclin T at 1 uM by microplate scintillation counting; type: protein-complex assay
[11] = target: Tyrosine-protein kinase Fes/Fps (Homo sapiens) (UniProt P07332); test: Residual activity of FES at 0.1 uM by microplate scintillation counting
Chain of Tyrosine-protein kinase Fes/Fps (Homo sapiens) (P07332 whole entry): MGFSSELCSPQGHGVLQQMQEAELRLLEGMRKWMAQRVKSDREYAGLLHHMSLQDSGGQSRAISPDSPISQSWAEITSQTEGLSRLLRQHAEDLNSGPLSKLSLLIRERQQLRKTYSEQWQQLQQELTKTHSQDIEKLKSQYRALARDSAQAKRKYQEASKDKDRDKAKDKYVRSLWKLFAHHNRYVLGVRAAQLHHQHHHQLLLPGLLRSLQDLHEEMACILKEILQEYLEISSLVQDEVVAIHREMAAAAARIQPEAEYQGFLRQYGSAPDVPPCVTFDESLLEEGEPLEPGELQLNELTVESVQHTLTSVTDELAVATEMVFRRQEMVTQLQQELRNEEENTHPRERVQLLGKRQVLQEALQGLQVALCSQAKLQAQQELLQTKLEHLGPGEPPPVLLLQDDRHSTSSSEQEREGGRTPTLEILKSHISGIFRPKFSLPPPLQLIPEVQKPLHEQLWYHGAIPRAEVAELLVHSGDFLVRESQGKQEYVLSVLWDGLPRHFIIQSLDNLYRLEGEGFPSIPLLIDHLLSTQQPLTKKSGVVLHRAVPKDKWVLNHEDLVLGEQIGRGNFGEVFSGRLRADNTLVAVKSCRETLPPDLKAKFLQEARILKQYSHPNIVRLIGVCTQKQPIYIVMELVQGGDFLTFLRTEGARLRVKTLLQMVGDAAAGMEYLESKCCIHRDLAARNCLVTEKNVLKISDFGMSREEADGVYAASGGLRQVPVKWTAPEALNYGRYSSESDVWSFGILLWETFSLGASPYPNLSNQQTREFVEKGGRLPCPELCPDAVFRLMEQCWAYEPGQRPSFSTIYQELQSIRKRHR

[12] = target: Calcium/calmodulin-dependent protein kinase type II subunit delta (Homo sapiens) (UniProt Q13557); test: Residual activity of CAMK2D at 0.1 uM by microplate scintillation counting
[13] = target: Serine/threonine-protein kinase MARK1 (Homo sapiens) (UniProt Q9P0L2); test: Residual activity of MARK1 at 0.1 uM by microplate scintillation counting
Chain of Serine/threonine-protein kinase MARK1 (Homo sapiens) (Q9P0L2 whole entry, looked up): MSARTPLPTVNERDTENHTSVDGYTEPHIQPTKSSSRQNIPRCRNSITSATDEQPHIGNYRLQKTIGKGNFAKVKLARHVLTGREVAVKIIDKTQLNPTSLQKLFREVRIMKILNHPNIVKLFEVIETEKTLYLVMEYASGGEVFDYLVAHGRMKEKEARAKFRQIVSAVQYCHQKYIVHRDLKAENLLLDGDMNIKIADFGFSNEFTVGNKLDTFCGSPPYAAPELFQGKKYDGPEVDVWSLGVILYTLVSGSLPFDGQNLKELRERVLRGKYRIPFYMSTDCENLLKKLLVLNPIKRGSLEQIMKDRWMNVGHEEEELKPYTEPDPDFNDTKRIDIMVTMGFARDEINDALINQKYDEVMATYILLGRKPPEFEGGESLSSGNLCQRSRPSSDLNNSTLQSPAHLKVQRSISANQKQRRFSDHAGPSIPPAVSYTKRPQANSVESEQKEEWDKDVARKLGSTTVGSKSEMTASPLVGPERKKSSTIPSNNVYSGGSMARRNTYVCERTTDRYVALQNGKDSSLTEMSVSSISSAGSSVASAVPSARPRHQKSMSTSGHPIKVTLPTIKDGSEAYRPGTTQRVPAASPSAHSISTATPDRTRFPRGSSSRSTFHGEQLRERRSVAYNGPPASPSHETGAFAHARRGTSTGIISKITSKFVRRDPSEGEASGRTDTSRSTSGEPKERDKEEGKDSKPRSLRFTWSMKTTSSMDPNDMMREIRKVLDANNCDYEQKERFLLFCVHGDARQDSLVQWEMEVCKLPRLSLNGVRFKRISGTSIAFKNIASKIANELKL

[14] = target: Protein kinase C gamma type (Homo sapiens) (UniProt P05129); test: Residual activity of PKCgamma at 1 uM by microplate scintillation counting

residual activity [1] | residual activity [2] | residual activity [3] | residual activity [4] | residual activity [5] | residual activity [6] | residual activity [7] | residual activity [8] | residual activity [9] | residual activity [10] | residual activity [11] | residual activity [12] | residual activity [13] | residual activity [14] | SMILES
72% | 111% | 95% | 109% | 81% | 103% | 82% | 96% | 110% | 93% | 107% | 87% | 90% | 102% | COc1cc2c(Oc3ccc(-c4nc5ccccc5s4)cc3)ncnc2cc1OCCCN1CCCC1
80% | 120% | 84% | 127% | 74% | 116% | 110% | 103% | 91% | 102% | 102% | 92% | 98% | 117% | COc1cc2c(Oc3ccc(-c4nc5ccccc5s4)cc3)ncnc2cc1OCCCN1CCN(C)CC1
95% | 104% | 90% | 139% | 87% | 102% | 102% | 100% | 62% | 92% | 101% | 105% | 91% | 117% | COc1cc2c(Oc3ccc(-c4nc5ccccc5s4)cc3F)ncnc2cc1OCCCN1CCN(C)CC1
